Values of other authors as cited in patent US7956212B2 (XenoPort, Inc., priority 2004, dated 2011).

Key:
[1] = following oral administration
[2] = rats
[3] = patients, administered alone

CC(C)(C)C(=O)Oc1ccc(C[C@H](N)C(=O)O)cc1O [NB-355]
levels of levodopa [1]: low

C[C@@](Cc1ccc(O)c(O)c1)(NN)C(=O)O [carbidopa]
absorption following rectal administration [2]: poor

N[C@@H](Cc1ccc(O)c(O)c1)C(=O)O [levodopa, L-3,4-dihydroxyphenylalanine]
half-life of levodopa in plasma [3]: about 50 min
